Legend:
CYP1A2 = target: T1, CYP1A2 (Homo sapiens, UniProt P05177); experiment: CYP1A2 inhibition (fluorescent substrate); assay type: in vitro ADME; details: CYP1A2, CEC substrate; read-out: Cyp IC50 1A2
T1 sequence (P05177 1-516): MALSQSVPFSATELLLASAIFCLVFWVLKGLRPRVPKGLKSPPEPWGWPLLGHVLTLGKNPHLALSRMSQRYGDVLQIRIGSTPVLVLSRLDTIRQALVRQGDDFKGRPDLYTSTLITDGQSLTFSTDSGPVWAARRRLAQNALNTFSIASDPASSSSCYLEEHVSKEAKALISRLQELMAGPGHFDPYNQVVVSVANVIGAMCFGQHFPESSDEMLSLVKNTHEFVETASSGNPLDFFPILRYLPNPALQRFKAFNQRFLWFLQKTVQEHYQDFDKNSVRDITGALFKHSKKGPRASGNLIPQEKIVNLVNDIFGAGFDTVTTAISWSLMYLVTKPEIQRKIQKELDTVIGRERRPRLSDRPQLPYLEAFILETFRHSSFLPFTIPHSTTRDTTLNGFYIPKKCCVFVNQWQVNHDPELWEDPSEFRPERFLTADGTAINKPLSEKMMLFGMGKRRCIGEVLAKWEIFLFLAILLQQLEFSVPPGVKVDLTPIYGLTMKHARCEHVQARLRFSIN
Outline: (§1)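 IC50 values come from plotting product fluorescence against compound concentration; inhibition lowers formation of the fluorescent metabolite. Ten-point twofold dilutions in co-factor mix were held 10 minutes at 37 °C before the enzyme reaction, also run at 37 °C.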

B-Raf = B-Raf (Homo sapiens, UniProt P15056); experiment: B-Raf biochemical kinase inhibition (AlphaScreen, biotin-MEK1 substrate); details: 100 μM ATP
Outline: (§2)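 IC50 derived from AlphaScreen signal plotted against compound concentration. Final ATP 100 μM; 3 h incubation at room temperature. Eight-point 3-fold dilution series prepared from a 0.1 mM DMSO stock.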

[1] = Relative solubility by turbidity in aqueous buffers of varying pH; assay type: physicochemical; details: for turbidity threshold (L, M, H) 7.4: HEPES pH 7.4; for turbidity threshold (L, M, H) 4.5: SIF pH 4.5; for turbidity threshold (L, M, H) 6.8: SIF pH 6.8; for turbidity threshold (L, M, H) 1.4: buffer pH 1.4 (SGF)
Outline: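 Turbidity endpoint: concentration where optical density at 490, 535 and 650 nm exceeds 0.01, three-wavelength average used. Buffers at pH 1.5, 4.5, 6.8 and 7.4; DMSO serial dilutions of 25 mM stock spiked 1 μL into 99 μL buffer. Low <31.3, moderate 31.3–250, high >250 μM.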

B-Raf V600E = B-Raf V600E (Homo sapiens, UniProt P15056, V600E); experiment: B-Raf V600E biochemical kinase inhibition (AlphaScreen, biotin-MEK1 substrate); details: 100 μM ATP
Outline: as §2

CYP3A4(BFC) = CYP3A4(BFC) (Homo sapiens, UniProt P08684); experiment: CYP3A4(BFC) inhibition (fluorescent substrate); assay type: in vitro ADME; details: read-out: Cyp IC50 3A4(BFC)
Outline: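 Inhibition was followed as loss of fluorescent metabolite from a known substrate, with compound in co-factor mix as a 10-point 1:1 serial dilution (100 mM DMSO stock).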

CYP2C19 = CYP2C19 (Homo sapiens, UniProt P33261); experiment: CYP2C19 inhibition (fluorescent substrate); assay type: in vitro ADME; details: CYP2C19, CEC substrate; read-out: Cyp IC50 2C19
Outline: as §1

Chain of B-Raf V600E (P15056 whole entry V600E): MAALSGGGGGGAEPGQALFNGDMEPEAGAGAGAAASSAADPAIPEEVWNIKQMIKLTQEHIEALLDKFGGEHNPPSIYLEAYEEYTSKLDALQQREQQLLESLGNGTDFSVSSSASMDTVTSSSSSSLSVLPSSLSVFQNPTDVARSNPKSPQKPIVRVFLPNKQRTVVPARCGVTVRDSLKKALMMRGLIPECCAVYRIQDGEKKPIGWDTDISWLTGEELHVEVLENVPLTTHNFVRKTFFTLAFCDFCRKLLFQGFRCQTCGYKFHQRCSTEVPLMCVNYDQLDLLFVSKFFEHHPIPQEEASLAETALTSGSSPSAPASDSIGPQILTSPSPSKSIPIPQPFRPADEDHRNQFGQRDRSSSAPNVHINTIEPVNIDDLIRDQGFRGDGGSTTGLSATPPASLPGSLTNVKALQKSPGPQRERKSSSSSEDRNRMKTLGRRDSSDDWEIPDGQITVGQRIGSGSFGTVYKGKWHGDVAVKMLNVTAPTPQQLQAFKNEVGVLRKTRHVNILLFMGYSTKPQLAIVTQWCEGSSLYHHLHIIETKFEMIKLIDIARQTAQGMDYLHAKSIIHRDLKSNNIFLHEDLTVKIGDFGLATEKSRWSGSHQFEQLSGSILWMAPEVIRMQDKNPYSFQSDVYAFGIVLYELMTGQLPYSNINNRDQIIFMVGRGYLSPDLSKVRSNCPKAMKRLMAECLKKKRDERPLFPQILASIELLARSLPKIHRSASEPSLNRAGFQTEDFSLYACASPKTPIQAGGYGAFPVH
Chain of B-Raf (P15056 whole entry): as the sequence (P15056 whole entry V600E) above, with E600V counted along it
Chain of CYP2C19 (P33261 whole entry): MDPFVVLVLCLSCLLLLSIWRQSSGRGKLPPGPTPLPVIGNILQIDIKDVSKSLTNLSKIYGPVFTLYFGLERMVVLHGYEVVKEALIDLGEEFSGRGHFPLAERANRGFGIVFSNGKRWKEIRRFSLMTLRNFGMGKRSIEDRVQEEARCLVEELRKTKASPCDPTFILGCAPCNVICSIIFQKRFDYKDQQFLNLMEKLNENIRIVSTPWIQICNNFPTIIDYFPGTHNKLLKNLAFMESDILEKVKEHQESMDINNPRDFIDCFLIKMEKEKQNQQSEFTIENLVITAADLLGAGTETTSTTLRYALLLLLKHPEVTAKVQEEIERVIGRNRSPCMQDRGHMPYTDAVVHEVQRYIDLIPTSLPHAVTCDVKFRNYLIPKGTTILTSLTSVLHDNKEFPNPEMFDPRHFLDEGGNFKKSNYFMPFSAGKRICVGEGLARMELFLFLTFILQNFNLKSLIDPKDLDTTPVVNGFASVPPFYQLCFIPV
Chain of CYP3A4(BFC) (P08684 whole entry): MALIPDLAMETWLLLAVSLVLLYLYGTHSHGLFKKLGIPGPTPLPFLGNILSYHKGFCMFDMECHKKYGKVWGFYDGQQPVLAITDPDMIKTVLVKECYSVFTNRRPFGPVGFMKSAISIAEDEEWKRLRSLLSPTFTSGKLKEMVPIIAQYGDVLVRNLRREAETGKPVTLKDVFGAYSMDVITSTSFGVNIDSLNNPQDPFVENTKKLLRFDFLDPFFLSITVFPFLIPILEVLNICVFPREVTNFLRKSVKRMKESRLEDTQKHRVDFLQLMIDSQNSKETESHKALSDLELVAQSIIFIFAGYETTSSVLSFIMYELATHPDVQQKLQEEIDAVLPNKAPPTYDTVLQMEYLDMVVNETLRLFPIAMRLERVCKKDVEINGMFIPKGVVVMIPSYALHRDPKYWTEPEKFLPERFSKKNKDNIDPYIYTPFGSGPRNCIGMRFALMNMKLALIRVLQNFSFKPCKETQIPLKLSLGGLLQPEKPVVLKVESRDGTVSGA

IC50 (CYP1A2) | IC50 (B-Raf) | IC50 (B-Raf V600E) | IC50 (CYP3A4(BFC)) | IC50 (CYP2C19) | SMILES | turbidity threshold (L, M, H) 7.4 [1] | turbidity threshold (L, M, H) 4.5 [1] | turbidity threshold (L, M, H) 6.8 [1] | turbidity threshold (L, M, H) 1.4 [1]
> 10 µM | < 0.01 µM | < 0.01 µM | > 10 µM | > 10 µM | CCCS(=O)(=O)Nc1ccc(F)c(C(=O)c2c[nH]c3ncc(-c4ccc(S(=O)(=O)N(C)C)cc4)cc23)c1F [P-2185, 4-{3-[2,6-Difluoro-3-(propane-1-sulfonylamino)-benzoyl]-1H-pyrrolo[2,3-b]pyridin-5-yl}-N,N-dimethyl-benzenesulfonamide] | L (low solubility if the threshold concentration is <31.3 04) | L (low solubility if the threshold concentration is <31.3 04) | L (low solubility if the threshold concentration is <31.3 04) | L (low solubility if the threshold concentration is <31.3 04)
> 10 µM | < 0.01 µM | < 0.01 µM | > 10 µM | > 10 µM | CCCS(=O)(=O)Nc1ccc(F)c(C(=O)c2c[nH]c3ncc(-c4cncc(S(C)(=O)=O)c4)cc23)c1F [P-2188, Propane-1-sulfonic acid {2,4-difluoro-3-[5-(5-methanesulfonyl-pyridin-3-yl)-1H-pyrrolo[2,3-b]pyridine-3-carbonyl]-phenyl}-amide] | M (moderate solubility if the threshold concentration is 31.3 μM to 250 μM) | L (low solubility if the threshold concentration is <31.3 04) | L (low solubility if the threshold concentration is <31.3 04) | M (moderate solubility if the threshold concentration is 31.3 μM to 250 μM)
> 10 µM | < 0.01 µM | < 0.01 µM | 5 to 10 µM | 5 to 10 µM | CCCS(=O)(=O)Nc1ccc(F)c(C(=O)c2c[nH]c3ncc(-c4ccc(NC(C)=O)nc4)cc23)c1F [P-2193, N-(5-{3-[2,6-Difluoro-3-(propane-1-sulfonylamino)-benzoyl]-1H-pyrrolo[2,3-b]pyridin-5-yl}-pyridin-2-yl)-acetamide] | L (low solubility if the threshold concentration is <31.3 04) | L (low solubility if the threshold concentration is <31.3 04) | L (low solubility if the threshold concentration is <31.3 04) | M (moderate solubility if the threshold concentration is 31.3 μM to 250 μM)
> 10 µM | < 0.01 µM | < 0.01 µM | > 10 µM | > 10 µM | CCCS(=O)(=O)Nc1ccc(F)c(C(=O)c2c[nH]c3ncc(-c4ccc(S(N)(=O)=O)cc4)cc23)c1F [P-2194, 4-{3-[2,6-Difluoro-3-(propane-1-sulfonylamino)-benzoyl]-1H-pyrrolo[2,3-b]pyridin-5-yl}-benzenesulfonamide] | L (low solubility if the threshold concentration is <31.3 04) | L (low solubility if the threshold concentration is <31.3 04) | L (low solubility if the threshold concentration is <31.3 04) | L (low solubility if the threshold concentration is <31.3 04)

More lines, now with the values behind:

SMILES | IC50 (CYP1A2) | IC50 (B-Raf) | IC50 (B-Raf V600E) | IC50 (CYP3A4(BFC)) | IC50 (CYP2C19) | turbidity threshold (L, M, H) 7.4 [1] | turbidity threshold (L, M, H) 4.5 [1] | turbidity threshold (L, M, H) 6.8 [1] | turbidity threshold (L, M, H) 1.4 [1]
CCCS(=O)(=O)Nc1ccc(F)c(C(=O)c2c[nH]c3ncc(-c4cnc(SC)nc4)cc23)c1F [P-2189, Propane-1-sulfonic acid {2,4-difluoro-3-[5-(2-methylsulfanyl-pyrimidin-5-yl)-1H-pyrrolo[2,3-b]pyridine-3-carbonyl]-phenyl}-amide] | > 10 µM | < 0.01 µM | < 0.01 µM | > 10 µM | 5 to 10 µM | L (low solubility if the threshold concentration is <31.3 04) | L (low solubility if the threshold concentration is <31.3 04) | L (low solubility if the threshold concentration is <31.3 04) | L (low solubility if the threshold concentration is <31.3 04)
CCCS(=O)(=O)Nc1ccc(F)c(C(=O)c2c[nH]c3ncc(-c4cnn(Cc5ccccc5)c4)cc23)c1F [P-2190, Propane-1-sulfonic acid {3-[5-(1-benzyl-1H-pyrazol-4-yl)-1H-pyrrolo[2,3-b]pyridine-3-carbonyl]-2,4-difluoro-phenyl}-amide] | > 10 µM | < 0.01 µM | < 0.01 µM | > 10 µM | 5 to 10 µM | L (low solubility if the threshold concentration is <31.3 04) | L (low solubility if the threshold concentration is <31.3 04) | L (low solubility if the threshold concentration is <31.3 04) | L (low solubility if the threshold concentration is <31.3 04)
CCCS(=O)(=O)Nc1ccc(F)c(C(=O)c2c[nH]c3ncc(-c4ccnc(F)c4)cc23)c1F [P-2192, Propane-1-sulfonic acid {2,4-difluoro-3-[5-(2-fluoro-pyridin-4-yl)-1H-pyrrolo[2,3-b]pyridine-3-carbonyl]-phenyl}-amide] | > 10 µM | < 0.01 µM | < 0.01 µM | > 10 µM | > 10 µM | L (low solubility if the threshold concentration is <31.3 04) | L (low solubility if the threshold concentration is <31.3 04) | L (low solubility if the threshold concentration is <31.3 04) | L (low solubility if the threshold concentration is <31.3 04)
CCCS(=O)(=O)Nc1ccc(F)c(C(=O)c2c[nH]c3ncc(-c4cnc(N(C)C)nc4)cc23)c1F [P-2196, Propane-1-sulfonic acid {3-[5-(2-dimethylamino-pyrimidin-5-yl)-1H-pyrrolo[2,3-b]pyridine-3-carbonyl]-2,4-difluoro-phenyl}-amide] | > 10 µM | < 0.01 µM | < 0.01 µM | < 5 µM | > 10 µM | L (low solubility if the threshold concentration is <31.3 04) | L (low solubility if the threshold concentration is <31.3 04) | L (low solubility if the threshold concentration is <31.3 04) | M (moderate solubility if the threshold concentration is 31.3 μM to 250 μM)
CCCS(=O)(=O)Nc1ccc(F)c(C(=O)c2c[nH]c3ncc(-c4cnc(N5CCOCC5)nc4)cc23)c1F [P-2197, Propane-1-sulfonic acid {2,4-difluoro-3-[5-(2-morpholin-4-yl-pyrimidin-5-yl)-1H-pyrrolo[2,3-b]pyridine-3-carbonyl]-phenyl}-amide] | > 10 µM | < 0.01 µM | < 0.01 µM | > 10 µM | > 10 µM | L (low solubility if the threshold concentration is <31.3 04) | L (low solubility if the threshold concentration is <31.3 04) | L (low solubility if the threshold concentration is <31.3 04) | M (moderate solubility if the threshold concentration is 31.3 μM to 250 μM)
CCCS(=O)(=O)Nc1ccc(F)c(C(=O)c2c[nH]c3ncc(-c4cnc(C)nc4)cc23)c1F [P-2211, Propane-1-sulfonic acid {2,4-difluoro-3-[5-(2-methyl-pyrimidin-5-yl)-1H-pyrrolo[2,3-b]pyridine-3-carbonyl]-phenyl}-amide] | > 10 µM | < 0.01 µM | < 0.01 µM | > 10 µM | 5 to 10 µM | M (moderate solubility if the threshold concentration is 31.3 μM to 250 μM) | M (moderate solubility if the threshold concentration is 31.3 μM to 250 μM) | M (moderate solubility if the threshold concentration is 31.3 μM to 250 μM) | M (moderate solubility if the threshold concentration is 31.3 μM to 250 μM)

Source: patent US8198273B2, “Compounds and methods for kinase modulation, and indications therefor” (Plexxikon Inc., priority 2009, dated 2012)
